Target: DDAH (Rattus norvegicus, UniProt O08557)
Assay: DDAH activity toward ADMA versus SDMA
Type: biochemical
Settings: ADMA versus SDMA as substrate
Source text: DDAH, however, has at least 1000-fold higher activity toward ADMA than SDMA, and is therefore uniquely suited for use in an enzymatic assay for unequivocal measurement of ADMA in complex mixtures. Nevertheless an enzymatic ADMA assay using DDAH is problematical because of a number of interfering components in blood. Importantly, citrulline is present in blood, so that it would provide a large background which would substantially diminish the accuracy of an assay where citrulline is the final product which is determined as a measure of the amount of ADMA in the sample. In addition, urea which is also present in blood cross-reacts in the citrulline assay. Finally, porphyrins in blood interfere with the spectrophotometric determination of citrulline. In order to have an enzymatic assay using DDAH, it is essential to prevent these various blood components from interfering with the assay.

Chain of DDAH (O08557 whole entry): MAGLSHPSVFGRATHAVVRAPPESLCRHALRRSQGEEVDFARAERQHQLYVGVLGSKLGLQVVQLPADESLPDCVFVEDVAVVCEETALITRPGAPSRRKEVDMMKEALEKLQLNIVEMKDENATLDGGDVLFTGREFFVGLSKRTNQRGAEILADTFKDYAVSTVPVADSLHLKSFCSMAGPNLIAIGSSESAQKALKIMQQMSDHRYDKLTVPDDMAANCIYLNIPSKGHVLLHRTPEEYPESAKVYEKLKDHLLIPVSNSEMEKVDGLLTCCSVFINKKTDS

DDAH activity toward ADMA relative to SDMA: at least 1000 fold
Structure (SMILES): CN(C)C(N)=NCCC[C@H](N)C(=O)O [ADMA, asymmetric dimethylarginine]
